Assay results published in US20080153705A1, “METHOD FOR INHIBITING DIFFERENTITATION AND FORMATION OF CONIFEROPHYTA MALE FLOWERS BY TREATMENT WITH PROHEXADIONE COMPOUNDS” (Syngenta Crop Protection, Inc., priority 2002, published 2008).

Key:
[1] = system: 43-year old Cryptomeria japonica trees; assay: Aerial (helicopter curtain) application of the agent to a forest of 43-year old Cryptomeria japonica trees (Example 2); format: in vivo; settings: 43-year old trees; for Number of male flower clusters: Table 6 composition (polyoxyethylene castor oil, tetrahydrofurfuryl alcohol, water), 1.8 liters per 10 a by helicopter, control group 2985.8 ± 789.1; for Shoot Elongation: Table 6 composition, control group 80.8 ± 9.4
Protocol: A Cryptomeria japonica forest having 43-year old Cryptomeria japonica trees (height: 16 m, diameter at breast height: 35 cm) was treated in Nirayama experimental plantation of the department of agriculture of Tottori University on Jun. 25, 2001.
The concentration of the agent for inhibiting the formation of Cryptomeria japonica pollen thus sprayed was 50 or 500 ppm.
1.8 liters of each of the above described two compositions was applied to the forest having an area of 10 a by the curtain application method with a helicopter. The aerial application was conducted twice, using 0.9 liter of the composition each time. In a control group, only water free from the active ingredients was used for the aerial application.

[2] = system: 8-year old young Cryptomeria japonica trees; assay: Foliar spray of prohexadione compound on branches of 8-year old young Cryptomeria japonica trees (Example 1); format: in vivo; settings: 8-year old trees; for Branches Elongation: control group 24.6 ± 6.4; for Number of male flower clusters: 100 ml foliar spray, control group 136.9 ± 21.6
Protocol: Two 8-year old young Cryptomeria japonica trees (height: 8 m, diameter at breast height: 6 cm) which were in a nursery of an experimental plantation of the department of agriculture of Tottori University and which had formed male flowers every year were used. Three branches were selected at male flower-forming positions of each tree. These branches which were supposed to form the male flowers were treated with the prohexadione compound ([…]) on Jun. 5, 2001 (about one month before the beginning of July when Cryptomeria japonica flower buds were supposed to differentiate and Cryptomeria japonica flower buds were supposed to be formed). In this test, the prohexadione compound was diluted to a concentration shown in Table 3 given below with 60% (v/v) aqueous acetone solution.
The treatment method was as follows: 100 ml of the diluted solution obtained as described above was sprayed on leaves of the branches (50 cm long area from the branch top) with a hand sprayer In a control group, the leaves were treated with only 60% (v/v) aqueous acetone solution.
The concentrations of the prohexadione compound used for the foliar spray treatment were as follows: • Concentration (ppm) • 0.5 • 5 • 50 • 500

Shoot Elongation ([1]; 50 ppm, aerial application): 83.3 ± 10.7 cm
Shoot Elongation ([1]; 500 ppm, aerial application): 82.8 ± 11.2 cm
Branches Elongation ([2]; 0.5 ppm foliar spray): 25.5 ± 7.2 cm
Elongation growth of the Cryptomeria japonica branches versus control group (in words) ([2]; 0.5 to 500 ppm): substantially unchanged
Branches Elongation ([2]; 5 ppm foliar spray): 26.2 ± 6.5 cm
Branches Elongation ([2]; 50 ppm foliar spray): 24.3 ± 6.3 cm
Branches Elongation ([2]; 500 ppm foliar spray): 25.2 ± 5.5 cm
Structure (SMILES): CCOC(=O)C1CC(=O)C(=C(O)C2CC2)C(=O)C1 (stereo not shown)
Elongation growth of the Cryptomeria japonica trees versus control group (in words) ([1]; 50 or 500 ppm, aerial application): substantially the same as that in the control group
Effect of inhibiting the differentiation and formation of the male flowers (in words) ([1]; 50 ppm or 500 ppm, aerial application): remarkable effect
Number of male flower clusters ([1]; 50 ppm): 751.3 ± 121.5
Number of male flower clusters ([1]; 500 ppm): 124.2 ± 55.2
Number of male flower clusters ([2]; 0.5 ppm in 60% aqueous acetone): 111.6 ± 25.2
Number of male flower clusters ([2]; 5 ppm in 60% aqueous acetone): 70.4 ± 12.4
Number of male flower clusters ([2]; 50 ppm in 60% aqueous acetone): 21.2 ± 6.5
Effect of inhibiting the differentiation and formation of male Cryptomeria japonica flowers (in words) ([2]; 50 ppm or 500 ppm): remarkable
Number of male flower clusters ([2]; 500 ppm in 60% aqueous acetone): 10.8 ± 6.1
